Laboratory results as given in paper PMC9452909, “Monomethylsulochrin isolated from biomass extract of Aspergillus sp. against Leishmania amazonensis: In vitro biological evaluation and molecular docking” (Frontiers in Cellular and Infection Microbiology, 2022).
≈ marks a conversion by molar mass, not a printed value. Read-outs that look alike come from different tables or passages of the source.

Experiments:
[1] = test system: L. infantum intracellular amastigote forms; parameters: method as in Hay et al. (2008); details: ref Hay et al. (2008); cited from earlier work
[2] = test system: L. mexicana promastigote forms; parameters: method as in Hay et al. (2008); details: ref Hay et al. (2008); cited from earlier work
[3] = test system: L. infantum promastigote forms; parameters: method as in Hay et al. (2008); details: ref Hay et al. (2008); cited from earlier work
[4] = test system: Leishmania; parameters: method as in Campos et al., 2017; details: ref Campos et al., 2017, cited from earlier work
[5] = Cytotoxicity assay (MTT); format: cell-based; details: mouse
Protocol: The animals were stimulated by intraperitoneal inoculation of 3.0 ml of sodium thioglycolate at 3.0%. After 72 h of elicitation, the animals were euthanized with 10% ketamine (Syntec, São Paulo, BRA) and 2% xylazine (Syntec, São Paulo, BRA) according to the weight of each animal and, after death, the animal’s skin was retracted by incision and subsequent divulsion for peritoneum exposure. A total of 10.0 ml of sterile pH 7.2 phosphate-buffered saline (PBS) was inoculated, and a light manual massage was performed. The cells were then harvested from the peritoneum and dispensed in a sterile conical tube. The peritoneal lavage was centrifuged at 380g for 5 min, and cells were suspended in culture medium (RPMI 1640 medium supplemented with 10% FBS, penicillin [100 U/ml], and [100 μg/ml] streptomycin) and incubated at 37°C, 5% CO2 overnight ([Almeida-Souza et al., 2018]).
Wells without cells were used as blank, and wells with cells and 1% DMSO were used as control. After 24-h incubation period, cell viability was assessed by MTT. The cytotoxicity of 50% (CC50) was calculated following the method described elsewhere by [Oliveira et al. (2018)]. The selectivity index (SI) was obtained from the ratio of peritoneal macrophages CC50 and IC50.

[6] = test system: L. amazonensis intracellular amastigote; assay: Activity against intracellular amastigote in infected peritoneal macrophages; format: cell-based, Leishmania amazonensis; details: 24 h; for IC50: Leishmania amazonensis, Peritoneal macrophage, in Mus musculus, read-out: L. amazonensis Intracellular amastigote IC50
Protocol: The viability of parasites was evaluated after treatment by counting the total number of live promastigotes, considering the flagellar motility, using Neubauer’s camera and optical light microscope ([Rottini et al., 2019]). This count was compared with the score of non-treated promastigote growth. This experiment was carried out in independent triplicate with each condition performed in triplicate. […] Wells with medium and without parasites were used as blanks, and wells with parasites only incubated with medium were used as controls. […] After 6 h, the cells were washed three times with PBS to remove free parasites. […] For the light microscopy analysis, the coverslips with the infected and treated cells were then fixed with Bouin solution and stained with Giemsa. […] Parameters of infection analysis were performed according to [Silva-Silva et al. (2021a)].

[7] = test system: L. amazonensis promastigote forms; assay: Flow cytometry with TMRE, mitochondrial membrane potential; format: cell-based, Leishmania amazonensis; details: 24 h, p = 0.0286
Protocol: Heat-killed parasites (60°C bath for 60 min) and untreated parasites were used as positive and negative controls, respectively. After incubation, parasites were centrifuged at 210g for 5 min at room temperature, washed in PBS, incubated with 300 μl of TMRE (50 nM) in the dark for 15 min, at room temperature, and submitted to flow cytometry through CytoFlex flow cytometer (Beckman Coulter Life Sciences, IN, USA). TMRE was excited by 488-nm blue laser, and its fluorescence was collected at 585/42 nm bandpass filter. CytExpert software version 2.1 (Beckman Coulter Life Sciences, IN, USA) was used for flow cytometry analyses ([Mondêgo-Oliveira et al., 2021]).

[8] = test system: fungi; parameters: method as in Zhang et al., 2014; details: ref Zhang et al., 2014; cited from earlier work
[9] = test system: L. amazonensis promastigote; assay: Antileishmanial activity assay, promastigote forms (live parasite counting); format: cell-based, Leishmania amazonensis; details: 24 h; for IC50: Leishmania amazonensis, mean ± SD
Protocol: Promastigote forms of L. amazonensis H21 (MHOM/BR/76/MA-76) were cultured at 26°C in Schneider’s insect medium. The culture was supplemented with 10% FBS, 100 IU/ml of penicillin, and 100 µg/ml of streptomycin in a maximum of 10 in vitro passages ([Almeida-Souza et al., 2016]).
In 96-well plates, the promastigote forms of L. amazonensis (10^6 parasites/ml) from a 3- to 5-day-old culture were incubated for 24 h in the presence of different concentrations of pseurotin A at 7.24–579.5 μM and monomethylsulochrin at 9.0–721.9 μM, in a final volume of 100 µL per well. The viability of parasites was evaluated after treatment by counting the total number of live promastigotes, considering the flagellar motility, using Neubauer’s camera and optical light microscope ([Rottini et al., 2019]). This count was compared with the score of non-treated promastigote growth. This experiment was carried out in independent triplicate with each condition performed in triplicate. The results were expressed as parasite growth inhibitory concentration of 50% (IC50). Wells with medium and without parasites were used as blanks, and wells with parasites only incubated with medium were used as controls. […] Activity against intracellular amastigote was performed in 24-well plates, with coverslips, with peritoneal macrophages cultured (5 × 10^5 cells per well) and infected with promastigote forms of L. amazonensis using a ratio of 10:1 parasites per cell. After 6 h, the cells were washed three times with PBS to remove free parasites. […] For the light microscopy analysis, the coverslips with the infected and treated cells were then fixed with Bouin solution and stained with Giemsa. The IC50 values of all compounds tested were calculated from the total of intracellular amastigote from 100 cells. Parameters of infection analysis were performed according to [Silva-Silva et al. (2021a)].

[10] = test system: bacteria; parameters: method as in Zhang et al., 2014; details: ref Zhang et al., 2014; cited from earlier work
[11] = test system: L. amazonensis promastigote forms; assay: Transmission electron microscopy, ultrastructural alterations; format: cell-based, Leishmania amazonensis; details: 18.04 µM (IC50), 24 h; p = 0.0016, 0.0016, 0.0480, 0.0079
Protocol: The transmission electron microscopy was performed to evaluate if monomethylsulochrin induced any ultrastructural alterations to the L. amazonensis promastigote forms. Parasites were treated with monomethylsulochrin with IC50 for 24 h and fixed with 2.5% glutaraldehyde in sodium cacodylate buff;er (0.1 M, pH 7.2) for overnight, then washed three times with 0.1 M sodium cacodylate buffer and postfixed in a solution containing 1% osmium tetroxide, 0.8% ferrocyanide, and 5 mM calcium chloride. 0.1 M sodium cacodylate buffer was used for washing, before being dehydrated in graded acetone and embedded in EPON 812 resin. Ultrathin sections were stained with 5% uranyl acetate aqueous solution and lead citrate (1.33% lead nitrate and 1.76% sodium citrate) and examined in a JEM-1011 transmission electron microscope (JEOL, Tokyo, Japan) at 80 kV ([Silva-Silva et al., 2021b]). The images acquired were used for quantification of the number of vacuoles and lipid corpuscles and area of vacuoles, lipid corpuscles, and mitochondria, using ImageJ software (NIH). Quantitative analysis was conducted with five untreated parasites and at least 10 treated parasites. The number of vacuoles and lipid corpuscles was expressed as mean ± standard deviation (SD), and the area of vacuoles, lipid corpuscles, and mitochondria were expressed as percentage of each parasite total area.

[12] = test system: L. donovani amastigotes, axenically cultured (cell free); parameters: method as in Martińez-Luis et al. (2012); details: isolated from endophytic Aspergillus sp. strain F1544; ref Martińez-Luis et al. (2012); cited from earlier work
[13] = peritoneal macrophages (thioglycolate-elicited), BALB/c peritoneal macrophages, 24 h, MTT, mean ± SD, read-out: Cytotoxicity CC50

Compound: CC(C)=CCC/C(C)=C/Cc1c(O)cc(O)c(C(=O)c2ccccc2)c1O [3-geranyl-2,4,6-trihydroxybenzophenone]
- IC50 against intracellular amastigote forms of L. infantum [1]: 0.7 µg/mL
- IC50 against promastigote forms of L. mexicana [2]: 4.05 µg/mL
- IC50 against promastigote forms of L. infantum [3]: 15 µg/mL

Compound: anhydrocochlioquinone A [anhydrocochlioquinone A (ANDC-A)]
- Leishmanicidal activity EC50 [4]: 22.4 µg/mL
- EC50 ([4]; read-out: Leishmanicidal activity EC50): 44 µM

Compound: COC(=O)c1cc(O)cc(OC)c1C(=O)c1c(O)cc(C)cc1OC [Monomethylsulochrin, monomethylsulochrin]
- CC50 at 24 h [5, 13]: 91.6 ± 1.28 µM
- Parameters of infection (amastigote number in 100 cells, percentage of infected cells, mean of amastigotes per infected cell) ([6]; 6 µM, p = 0.0082, 0.0033, 0.0041): statistically significant reduction
- SIama (selectivity index = CC50 macrophages/IC50 amastigote forms) [6]: 18.00
- IC50 ([6]; infected BALB/c peritoneal macrophages, mean ± SD): 5.09 ± 1.06 µM
- Change in Δψm ([7]; 18.04 µM): significant decrease
- Decrease in the mitochondrial membrane potential ([7]; IC50 concentration): 25.9%
- Antifungal activity [8]: no antifungal activity
- SIpro (selectivity index = CC50 macrophages/IC50 promastigote forms) [9]: 5.08
- IC50 [9]: 18 ± 1.11 µM
- Antibacterial activity [10]: weak antibacterial activity
- Ultrastructural changes: number of vacuoles, vacuoles area, lipid corpuscles area, mitochondria area [11]: statistically significant changes

Compound: C[C@@H]1[C@H](O)[C@@H](C)/C=C/C=C/C=C/C=C/C=C/C=C/C=C/[C@H](O[C@@H]2O[C@H](C)[C@@H](O)[C@H](N)[C@@H]2O)C[C@@H]2O[C@](O)(C[C@@H](O)C[C@@H](O)[C@H](O)CC[C@@H](O)C[C@@H](O)CC(=O)O[C@H]1C)C[C@H](O)[C@H]2C(=O)O [Amphotericin B, amphotericin B, reference compound]
- CC50 at 24 h ([5]; BALB/c): 8.45 ± 1.08 µM
- Infection parameters (all) ([6]; 3 µM): significant reduction
- SIama (selectivity index = CC50 macrophages/IC50 amastigote forms) [6]: 13.43
- IC50 [6]: 0.629 ± 1.39 µM
- SIpro (selectivity index = CC50 macrophages/IC50 promastigote forms) [9]: 312.96

Compound: CC/C=C\[C@H](O)[C@H](O)C1=C(C)C(=O)[C@]2(O1)C(=O)N[C@@](OC)(C(=O)c1ccccc1)[C@@H]2O [Pseurotin A, pseurotin A]
- IC50 against axenically cultured (cell free) L. donovani amastigotes [12]: 5.8 µg/mL (≈ 13.4 µM)
- CC50 at 24 h [5, 13]: 654.4 ± 1.19 µM
- IC50 [9]: > 500 µM
